Source: US20030207813A1, “Retroviral protease inhibitor combinations” (priority 1995, published 2003)

Experiments:
Assay type in all cases: cell-based, HIV-1
NL4(538/P7-AG) = assay: Viral isolate resistance assay per Markowitz et al., NL4(538/P7-AG); conditions: Human immunodeficiency virus 1; Table 10; NL4(P22-538) selected against Example 12, 7 passages
Excerpt: (§1) RF represents the HIV-1 strain HIV-LRF and RFR represents a mixture of resistant strains obtained by selection of RF against the compound of Example 1. RFR comprises a mixture of viral strains having protease genotypes of G48V (14/40 clones); G48V, V82A (18/40 clones); G48V, L90S (2/40 clones); G48V, 154T, V82A (1/40 clones); G48M (1/40 clones); G48V, Q61H (1/40 clones); V13I, G48V (1/40 clones); G48V, F53L, V82A (1/40 clones); and G48V, V82A, C95Y (1/40 clones). RFR2 represents a mixture of resistant strains obtained by cloning RFR by three rounds of growth at limiting dilution. RFR2 comprises a mixture of viral strains having protease genotypes of G48V, V82A (13/15 clones); G17E, G48V, V82A (1/15 clones); and G48V, V82A, N37D, N88D (1/15 clones). RFRR represents a mixture of resistant strains obtained by selection of RF against the compounds of Examples 1 and 2 and then cloning by three rounds of growth at limiting dilution. RFRR comprises a mixture of viral strains having protease genotypes of G48V, 154T, L63P, V82A (7/9 clones); G48V, 154T, L63P, V82A, N88S (1/9 clones); and G48V, 154T, L63P, G73M, V82A (1/9 clones). SF162 represents the HIV-1 strain SF-162 and SF162R represents a mixture of resistant strains obtained by selection of SF162 against the compound of Example 1. SF162R comprises a mixture of viral strains having protease genotypes of M461, F53L, L63P, A71V, N88D (2/3 clones); and M46I, F53L, L63P, A71V, N88D, Q92R (1/3 clones). 89-959 represents the HIV-1 strain 89-959 and 89-959R represents a mixture of resistant strains obtained by selection of 89-959 against the compound of Example 2. 89-959R comprises a mixture of viral strains having protease genotypes of N88S (4/5 clones); and D25N, T26A, D30N, D37N, R41K, G73D, R87K, N88S (1/4 clones). NL4 represents the HIV-1 strain HIV-1NL4-3. NL4(G48V) represents a strain having a synthetically generated site-directed mutation in the protease from glycine to valine at amino acid position number 48. NL4(I84V) represents a strain having a synthetically generated site-directed mutation in the protease from isoleucine to valine at amino acid position number 84. NL4(R8Q,M46I) represents a strain having synthetically generated site-directed mutations in the protease from arginine to glutamine at amino acid position number 8 and methionine to isoleucine at amino acid position number 46. NL4(P22-538) represents a mixture of resistant strains obtained by selection of HIV-1NL4-3 against the compound of Example 10 after 22 passages comprising protease genotypes M46I, L63P, A71V, V82F, I84V (4/10); M46I, L63P, V82F, I84V (3/10); and M46I, A71V, V82F, I84V (3/10). NL4(P37-538) represents resistant strains obtained by selection of HIV-1NL4-3 against the compound of Example 10 after 37 passages comprising protease genotype M46I, L63P, A71V, 184A. NL4(538/524) represents resistant strains obtained by selection of NL4(P22-538) against the compound of Example 5 after 24 passages comprising protease genotype M46I, L63P, A71V, 184A. NL4(538/P7-AG) represents a mixture of resistant strains obtained by selection of NL4(P22-538) against the compound of Example 12 after 7 passages comprising protease genotypes M46I, L63P, A71V, 184A; and V321, V82I. NL4(538/P24-AG) represents resistant strains obtained by selection of NL4(P22-538) against the compound of Example 12 after 24 passages comprising protease genotype M46I, L63P, A71V, 184A. […]

NL4(G48V) = assay: Viral isolate resistance assay per Markowitz et al., NL4(G48V); conditions: Human immunodeficiency virus 1, Table 7
Excerpt: RF represents the HIV-1 strain HIV-LRF and RFR represents a mixture of resistant strains obtained by selection of RF against the compound of Example 1. […] RFR2 represents a mixture of resistant strains obtained by cloning RFR by three rounds of growth at limiting dilution. […] RFRR represents a mixture of resistant strains obtained by selection of RF against the compounds of Examples 1 and 2 and then cloning by three rounds of growth at limiting dilution. […] SF162 represents the HIV-1 strain SF-162 and SF162R represents a mixture of resistant strains obtained by selection of SF162 against the compound of Example 1. […] 89-959 represents the HIV-1 strain 89-959 and 89-959R represents a mixture of resistant strains obtained by selection of 89-959 against the compound of Example 2. […] NL4 represents the HIV-1 strain HIV-1NL4-3. NL4(G48V) represents a strain having a synthetically generated site-directed mutation in the protease from glycine to valine at amino acid position number 48. NL4(I84V) represents a strain having a synthetically generated site-directed mutation in the protease from isoleucine to valine at amino acid position number 84. NL4(R8Q,M46I) represents a strain having synthetically generated site-directed mutations in the protease from arginine to glutamine at amino acid position number 8 and methionine to isoleucine at amino acid position number 46.

NLA(P19-003) = assay: Viral isolate resistance assay per Markowitz et al., NLA(P19-003); conditions: Human immunodeficiency virus 1, read-out: Virus Isolate (EC50 nM) NLA(P19-003)
Excerpt: RF represents the HIV-1 strain HIV-LRF and RFR represents a mixture of resistant strains obtained by selection of RF against the compound of Example 1. RFR comprises a mixture of viral strains having protease genotypes of G48V (14/40 clones); G48V, V82A (18/40 clones); G48V, L90S (2/40 clones); G48V, 154T, V82A (1/40 clones); G48M (1/40 clones); G48V, Q61H (1/40 clones); V13I, G48V (1/40 clones); G48V, F53L, V82A (1/40 clones); and G48V, V82A, C95Y (1/40 clones). RFR2 represents a mixture of resistant strains obtained by cloning RFR by three rounds of growth at limiting dilution. RFR2 comprises a mixture of viral strains having protease genotypes of G48V, V82A (13/15 clones); G17E, G48V, V82A (1/15 clones); and G48V, V82A, N37D, N88D (1/15 clones). RFRR represents a mixture of resistant strains obtained by selection of RF against the compounds of Examples 1 and 2 and then cloning by three rounds of growth at limiting dilution. RFRR comprises a mixture of viral strains having protease genotypes of G48V, 154T, L63P, V82A (7/9 clones); G48V, 154T, L63P, V82A, N88S (1/9 clones); and G48V, 154T, L63P, G73M, V82A (1/9 clones). SF162 represents the HIV-1 strain SF-162 and SF162R represents a mixture of resistant strains obtained by selection of SF162 against the compound of Example 1. SF162R comprises a mixture of viral strains having protease genotypes of M461, F53L, L63P, A71V, N88D (2/3 clones); and M46I, F53L, L63P, A71V, N88D, Q92R (1/3 clones). 89-959 represents the HIV-1 strain 89-959 and 89-959R represents a mixture of resistant strains obtained by selection of 89-959 against the compound of Example 2. 89-959R comprises a mixture of viral strains having protease genotypes of N88S (4/5 clones); and D25N, T26A, D30N, D37N, R41K, G73D, R87K, N88S (1/4 clones). NL4 represents the HIV-1 strain HIV-1NL4-3. NL4(G48V) represents a strain having a synthetically generated site-directed mutation in the protease from glycine to valine at amino acid position number 48. […]

NL4(P22-538) = assay: Viral isolate resistance assay per Markowitz et al., NL4(P22-538); conditions: Human immunodeficiency virus 1; Table 9; selected against Example 10, 22 passages; read-out: Virus Isolate (EC50 nM) NL4(P22-538)
Excerpt: as §1

NL4(P37-538) = assay: Viral isolate resistance assay per Markowitz et al., NL4(P37-538); conditions: Human immunodeficiency virus 1; Table 9; selected against Example 10, 37 passages; read-out: Virus Isolate (EC50 nM) NL4(P37-538)
Excerpt: RF represents the HIV-1 strain HIV-LRF and RFR represents a mixture of resistant strains obtained by selection of RF against the compound of Example 1. RFR comprises a mixture of viral strains having protease genotypes of G48V (14/40 clones); G48V, V82A (18/40 clones); G48V, L90S (2/40 clones); G48V, 154T, V82A (1/40 clones); G48M (1/40 clones); G48V, Q61H (1/40 clones); V13I, G48V (1/40 clones); G48V, F53L, V82A (1/40 clones); and G48V, V82A, C95Y (1/40 clones). RFR2 represents a mixture of resistant strains obtained by cloning RFR by three rounds of growth at limiting dilution. RFR2 comprises a mixture of viral strains having protease genotypes of G48V, V82A (13/15 clones); G17E, G48V, V82A (1/15 clones); and G48V, V82A, N37D, N88D (1/15 clones). RFRR represents a mixture of resistant strains obtained by selection of RF against the compounds of Examples 1 and 2 and then cloning by three rounds of growth at limiting dilution. RFRR comprises a mixture of viral strains having protease genotypes of G48V, 154T, L63P, V82A (7/9 clones); G48V, 154T, L63P, V82A, N88S (1/9 clones); and G48V, 154T, L63P, G73M, V82A (1/9 clones). SF162 represents the HIV-1 strain SF-162 and SF162R represents a mixture of resistant strains obtained by selection of SF162 against the compound of Example 1. SF162R comprises a mixture of viral strains having protease genotypes of M461, F53L, L63P, A71V, N88D (2/3 clones); and M46I, F53L, L63P, A71V, N88D, Q92R (1/3 clones). 89-959 represents the HIV-1 strain 89-959 and 89-959R represents a mixture of resistant strains obtained by selection of 89-959 against the compound of Example 2. 89-959R comprises a mixture of viral strains having protease genotypes of N88S (4/5 clones); and D25N, T26A, D30N, D37N, R41K, G73D, R87K, N88S (1/4 clones). NL4 represents the HIV-1 strain HIV-1NL4-3. NL4(G48V) represents a strain having a synthetically generated site-directed mutation in the protease from glycine to valine at amino acid position number 48. NL4(I84V) represents a strain having a synthetically generated site-directed mutation in the protease from isoleucine to valine at amino acid position number 84. NL4(R8Q,M46I) represents a strain having synthetically generated site-directed mutations in the protease from arginine to glutamine at amino acid position number 8 and methionine to isoleucine at amino acid position number 46. NL4(P22-538) represents a mixture of resistant strains obtained by selection of HIV-1NL4-3 against the compound of Example 10 after 22 passages comprising protease genotypes M46I, L63P, A71V, V82F, I84V (4/10); M46I, L63P, V82F, I84V (3/10); and M46I, A71V, V82F, I84V (3/10). NL4(P37-538) represents resistant strains obtained by selection of HIV-1NL4-3 against the compound of Example 10 after 37 passages comprising protease genotype M46I, L63P, A71V, 184A. NL4(538/524) represents resistant strains obtained by selection of NL4(P22-538) against the compound of Example 5 after 24 passages comprising protease genotype M46I, L63P, A71V, 184A. NL4(538/P7-AG) represents a mixture of resistant strains obtained by selection of NL4(P22-538) against the compound of Example 12 after 7 passages comprising protease genotypes M46I, L63P, A71V, 184A; and V321, V82I. NL4(538/P24-AG) represents resistant strains obtained by selection of NL4(P22-538) against the compound of Example 12 after 24 passages comprising protease genotype M46I, L63P, A71V, 184A. NLA(P19-003) represents resistant strains obtained by selection of HIV-1^NL4-3 against the compound of Example 9 after 19 passages comprising protease genotype R8K, M46I. NL4(P34-003) represents resistant strains obtained by selection of HIV-1^NL4-3 against the compound of Example 9 after 34 passages comprising protease genotype R8K, M46I, L63P, A71V, L90M.
The viral isolate resistance results summarized in Tables 7-11 were generated according to the assay procedures described by Markowitz et al., Journal of Virology, vol. […]

| SMILES | EC50 (NL4(538/P7-AG)) [nM] | EC90 (NL4(G48V)) [nM] | EC50 (NLA(P19-003)) [nM] | EC50 (NL4(P22-538)) [nM] | EC50 (NL4(P37-538)) [nM] |
| --- | --- | --- | --- | --- | --- |
| CC(C)(C)NC(=O)[C@@H]1CN(Cc2cccnc2)CCN1C[C@@H](O)C[C@@H](Cc1ccccc1)C(=O)N[C@H]1c2ccccc2C[C@H]1O [Example 5, N-(2(R)-Hydroxy-1(S)-indanyl)-2(R)-phenylmethyl-4(S)-hydroxy-5-(1-(4-(3-pyridylmethyl)-2(S)-N′-(t-butylcarboxamido)-piperazinyl))-pentaneamide] | 6400 | 160 | 240 | 800 | 6400 |
| CC(C)(C)NC(=O)[C@@H]1CC2CCCC[C@@H]2CN1C[C@@H](O)[C@H](Cc1ccccc1)NC(=O)[C@H](CC(N)=O)NC(=O)c1ccc2ccccc2n1 (stereo in doubt) [Example 6, N-tert-Butyl decahydro-2-[2(R)-hydroxy-4-phenyl-3(S)-[[N-(2-quinolylcarbonyl)-L-asparaginyl]amino]butyl]-(4aR,8aS)-isoquinoline-3(S)-carboxamide] | 2400 | 150 | – | 150 | 2400 |
